Series [1] relates to BHK-21 cells. As to the kind of experiment: Inhibitory effects of steroids on BHK-21 cells. The format is cell-based, hamster. The settings on record: for activity at 0.5 µg/mL / activity at 1 µg/mL / activity at 5 µg/mL / activity at 25 µg/mL / activity at 50 µg/mL: Mesocricetus auratus, read-out: % of control cell numbers.
Series [2] concerns BHK-21 cells. As to the kind of experiment: Effects of WHS on BHK-21 cells in the presence of steroids. The class given is cell-based, hamster. Particulars: steroid 50 μg/ml alone.
The test system of series [3] is mouse fibroblasts. Particulars: with protoplasmic vacuolation; cited from earlier work.
The subject of series [4] is human cutaneous fibroblasts. The settings on record: cited from earlier work; for growth inhibition of incubated human cutaneous fibroblasts: listed in descending order of inhibition.
Series [5] relates to BHK-21 cells (hamster renal fibroblasts). As to the kind of experiment: Growth of BHK-21 cells, time course. The format is cell-based.
Series [6] deals with epidermal cell. The settings on record: cited from earlier work.

These results are taken from patent US4604234A, “Protein having cell growth stimulating action, composition thereof and method for producing the same” (priority 1983, dated 1986).

Where two headings read alike, the source gives them in different places.

Regarding `CC1(C)O[C@@H]2C[C@H]3[C@@H]4C[C@H](F)C5=CC(=O)C=C[C@]5(C)[C@@]4(F)[C@@H](O)C[C@]3(C)[C@]2(C(=O)CO)O1` [Fluocinolone acetanide, fluocinolone acetonide], the cell numbers is 0.15 × 10^5 cells/dish in series [1] (0.5 μg/ml, 1 day); 1.16 × 10^5 cells/dish in series [1] (0.5 μg/ml, 3 days); 1.66 × 10^5 cells/dish in series [1] (0.5 μg/ml, 5 days); 0.15 × 10^5 cells/dish in series [1] (1.0 μg/ml, 1 day); 1.04 × 10^5 cells/dish in series [1] (1.0 μg/ml, 3 days); 1.72 × 10^5 cells/dish in series [1] (1.0 μg/ml, 5 days). For the same compound, the cell numbers in series [1] (5.0 μg/ml, 1 day) is given as 0.15 × 10^5 cells/dish; in series [1] (5.0 μg/ml, 3 days), 1.02 × 10^5 cells/dish; in series [1] (5.0 μg/ml, 5 days) it was 1.66 × 10^5 cells/dish; in series [1] (25.0 μg/ml, 1 day), 0.15 × 10^5 cells/dish; in series [1] (25.0 μg/ml, 3 days) it was 0.88 × 10^5 cells/dish; in series [1] (25.0 μg/ml, 5 days), 1.39 × 10^5 cells/dish. Further, the cell numbers in series [1] (50.0 μg/ml, 1 day) is given as 0.12 × 10^5 cells/dish; in series [1] (50.0 μg/ml, 3 days), 0.71 × 10^5 cells/dish; in series [1] (50.0 μg/ml, 5 days) it was 1.12 × 10^5 cells/dish; in series [2] (3rd day), 0.97 × 10^5 cells/dish; in series [2] (5th day), 1.22 × 10^5 cells/dish. For the same compound, the activity at 0.5 µg/mL is 107% in series [1] (BHK-21, 24 h, 0.5 μg/ml, 1 day); 86.6% in series [1] (BHK-21, 72 h, 0.5 μg/ml, 3 days); 75.8% in series [1] (BHK-21, 120 h, 0.5 μg/ml, 5 days). For the same compound, the activity at 1 µg/mL in series [1] (BHK-21, 24 h, 1.0 μg/ml, 1 day) turned out to be 107%; in series [1] (BHK-21, 72 h, 1.0 μg/ml, 3 days) it was 77.6%; in series [1] (BHK-21, 120 h, 1.0 μg/ml, 5 days) it was 78.5%. Further, the activity at 5 µg/mL was found to be 107% in series [1] (BHK-21, 24 h, 5.0 μg/ml, 1 day); 76.1% in series [1] (BHK-21, 72 h, 5.0 μg/ml, 3 days); 75.8% in series [1] (BHK-21, 120 h, 5.0 μg/ml, 5 days). Also, the activity at 25 µg/mL in series [1] (BHK-21, 24 h, 25.0 μg/ml, 1 day) came to 107%; in series [1] (BHK-21, 72 h, 25.0 μg/ml, 3 days), 65.7%; in series [1] (BHK-21, 120 h, 25.0 μg/ml, 5 days), 63.5%. Further, the activity at 50 µg/mL in series [1] (BHK-21, 24 h, 50.0 μg/ml, 1 day) is 85.7%; in series [1] (BHK-21, 72 h, 50.0 μg/ml, 3 days), 53%; in series [1] (BHK-21, 120 h, 50.0 μg/ml, 5 days), 51.1%. Also, in series [3], the “growth of incubated mouse fibroblasts” value is listed as “inhibited growth”.
Consider `C[C@]12CCC(=O)C=C1CC[C@@H]1[C@@H]2[C@@H](O)C[C@@]2(C)[C@H]1CC[C@]2(O)C(=O)CO` [Hydrocortisone, hydrocortisone], for which the cell numbers is on record as 13.0 × 10^5 cells/dish in series [1] (0.5 μg/ml, 2 days); 24.0 × 10^5 cells/dish in series [1] (0.5 μg/ml, 4 days); 25.6 × 10^5 cells/dish in series [1] (0.5 μg/ml, 6 days); 12.5 × 10^5 cells/dish in series [1] (1.0 μg/ml, 2 days); 23.8 × 10^5 cells/dish in series [1] (1.0 μg/ml, 4 days); 25.1 × 10^5 cells/dish in series [1] (1.0 μg/ml, 6 days). Moreover, the cell numbers was 12.0 × 10^5 cells/dish in series [1] (5.0 μg/ml, 2 days); 21.9 × 10^5 cells/dish in series [1] (5.0 μg/ml, 4 days); 25.2 × 10^5 cells/dish in series [1] (5.0 μg/ml, 6 days); 9.3 × 10^5 cells/dish in series [1] (25.0 μg/ml, 2 days); 17.1 × 10^5 cells/dish in series [1] (25.0 μg/ml, 4 days); 22.6 × 10^5 cells/dish in series [1] (25.0 μg/ml, 6 days). Moreover, the cell numbers in series [1] (50.0 μg/ml, 2 days) is recorded as 8.2 × 10^5 cells/dish; in series [1] (50.0 μg/ml, 4 days), 10.8 × 10^5 cells/dish; in series [1] (50.0 μg/ml, 6 days) it was 10.0 × 10^5 cells/dish; in series [2] (2nd day), 8.2 × 10^5 cells/dish; in series [2] (4th day), 12.6 × 10^5 cells/dish. The activity at 0.5 µg/mL in series [1] (BHK-21, 48 h, 0.5 μg/ml, 2 days) turned out to be 105%; in series [1] (BHK-21, 96 h, 0.5 μg/ml, 4 days), 92.7%; in series [1] (BHK-21, 144 h, 0.5 μg/ml, 6 days), 98.5%. The activity at 1 µg/mL in series [1] (BHK-21, 48 h, 1.0 μg/ml, 2 days) was determined as 101%; in series [1] (BHK-21, 96 h, 1.0 μg/ml, 4 days) it was 91.7%; in series [1] (BHK-21, 144 h, 1.0 μg/ml, 6 days), 96.5%. Further, the activity at 5 µg/mL worked out at 96.8% in series [1] (BHK-21, 48 h, 5.0 μg/ml, 2 days); 84.6% in series [1] (BHK-21, 96 h, 5.0 μg/ml, 4 days); 96.9% in series [1] (BHK-21, 144 h, 5.0 μg/ml, 6 days). The activity at 25 µg/mL in series [1] (BHK-21, 48 h, 25.0 μg/ml, 2 days) came out at 75%; in series [1] (BHK-21, 96 h, 25.0 μg/ml, 4 days), 66%; in series [1] (BHK-21, 144 h, 25.0 μg/ml, 6 days), 86.9%. Further, the activity at 50 µg/mL in series [1] (BHK-21, 48 h, 50.0 μg/ml, 2 days) amounted to 66.1%; in series [1] (BHK-21, 96 h, 50.0 μg/ml, 4 days) it was 41.7%; in series [1] (BHK-21, 144 h, 50.0 μg/ml, 6 days), 40%. The “growth inhibition of incubated human cutaneous fibroblasts” value (from here on “growth inhibition”) in series [4] is “inhibited”.
Turning to `CCC(=O)OCC(=O)[C@@]1(OC(=O)CC)[C@@H](C)C[C@H]2[C@@H]3CCC4=CC(=O)C=C[C@]4(C)[C@@]3(F)[C@@H](O)C[C@@]21C` [betamethasonedipropionate], the “growth inhibition” value in series [4] is “inhibited”.
As for `CCC(=O)O[C@]1(C(=O)CCl)[C@@H](C)C[C@H]2[C@@H]3CCC4=CC(=O)C=C[C@]4(C)[C@@]3(F)[C@@H](O)C[C@@]21C` [clobetasol-17-propionate], the “denaturation of human fibroblastic nuclei and protoplasms” value in series [4] (25 μg/ml) was “caused human fibroblastic nuclei and protoplasms to denature”. For the same compound, in series [4], the “growth inhibition” value is “inhibited”.
With `C[C@]12CCC(=O)C=C1CC[C@@H]1[C@@H]2[C@@H](O)C[C@@]2(C)[C@H]1CC[C@]2(O)C(=O)CO` [cortisol], the “growth of incubated mouse fibroblasts” value in series [3] is “inhibited growth”.
For `CCCC(=O)O[C@]1(C(=O)CO)CC[C@H]2[C@@H]3CCC4=CC(=O)CC[C@]4(C)[C@H]3[C@@H](O)C[C@@]21C` [hydrocortisone-butylate], the “growth inhibition” value in series [4] was “inhibited”.
In the case of EGF: epidermal growth factor, the “saturation density of the cells” value in series [5] is “increased the saturation density of the cells”.
Take PDGF: the “saturation density of the cells” value in series [5] (Eagle's MEM containing 10% calf serum, 37° C.) is on record as “increased the saturation density of the cells”.
For cholera toxin, the “stimulating activity on epidermal cell growth” value in series [6] is “marked stimulating activity”.
